In patent US20260035459A1, “HUMANIZED CHIMERIC ANTIGEN RECEPTORS TARGETING THE B-CELL RECEPTOR OF CHRONIC LYMPHOCYTIC LEUKEMIA AND USES THEREOF” (AVA LIFESCIENCE GMBH, priority 2022, published 2026):

Columns and labels:
OCI-Ly1 wt cells = assay type: cell-based; details: human, 24 h
Description: (§1) The graph depicts a titration of ibrutinib to determine toxicity towards OCI-Ly1 cell models upon administration of serial dilutions of ibrutinib (11 steps, ranges 0.01 to 20 μM) to OCI-Ly1 wt or OCI-Ly1_R110 cells for 24 hours. Cell growth in percent was plotted as total numbers of ibrutinib-treated cells relative to the total number of untreated cells. […] This dose was thus chosen for further testing of CAR T efficacy.
(§2) Coadministration of BTK-inhibitors like ibrutinib-a BTK/ITK inhibitor known to restore T cell functionality—to CAR T cell can have additive anti-tumor effects. To test this in the R110 CAR T setting, ibrutinib toxicity for OCI-Ly1 target cells was assessed first. For this, 2×10^4 OCI-Ly1 wt and OCI-Ly1_R110 cells were seeded in 200 μl culture media supplemented with serial dilutions of ibrutinib (PCI-32765, Selleck Chemicals, Cat. S2680) ranging from 0.01 to 20 μM. Cells grown under the same conditions without ibrutinib served as control. After 24h incubation, viable (trypan blue exclusion) cells were counted using the Vi-CELL XR system (Beckman Coulter). Cell growth in percent was then plotted as total numbers of ibrutinib-treated cells relative to the total number of untreated cells (FIG. 10). […] This dose was thus chosen for further testing of CAR T efficacy.

OCI-Ly1_R110 cells = assay type: cell-based; details: human, 24 h
Description: as §1, §2

C=CC(=O)N1CCC[C@@H](n2nc(-c3ccc(Oc4ccccc4)cc3)c3c(N)ncnc32)C1 [ibrutinib]
highest dose that does not result in a viability drop of target cells (OCI-Ly1 wt cells): 0.08 UM
highest dose that does not result in a viability drop of target cells (OCI-Ly1_R110 cells): 0.08 UM
